The results in this text go back to US20100260785A1, “SARP-1 Fusion Proteins and Uses Thereof” (priority 2007, published 2010).

Entries after “also recorded” stand apart in the source; their conditions may differ.

For experiment [1], the system named is murine Wnt1 and human Wnt2. Put plainly: Wnt antagonistic activity, LEF-luciferase reporter assay with mixed Inducer and Reporter 293T cells. It is filed as cell-based. On the procedure: 293T cells expressing murine Wnt1 and human Wnt2 (Inducer Cells) and 293T cells expressing Luciferase under the control of LEF-site-linked promoter (Reporter Cells) were mixed at an equal ratio and seeded in 100 μl medium per well in a 96-well microtiter plate. The Inducer Cells by overexpressing Wnt1 and Wnt2 at its surface were able to induce an activation of the Wnt signaling pathway triggered by the interaction of the Wnt proteins with its receptor at the cell membrane of the Reporter Cells. The Reporter Cells in response to Wnt pathway activation expressed luciferase by the activation of Wnt responsive genes such as LEF.
The mixture was composed of about 10,000 Inducer Cells and 10,000 Reporter Cells per well. SARP-1(Fz)delta7-Fc was added to the culture medium at different concentrations (from 300 to 5 μg/ml). After 48 hours of incubation, the medium was discarded, and 40 μl lysis buffer were added to the cells. After 15 minutes of lysis on an orbital shaker at 4° C., the samples were submitted to two cycles of freezing and thawing followed by rigid shaking using a vortex (for 2 minutes) and sedimentation by centrifugation at 2000 rpm in V-shape microtiter plates.
Luciferase activities were normalized by total protein content in the lysate. Protein quantification was performed on 5 μl cell lysate using the BCA kit (Pierce) as known in the art. To measure the luciferase activity, 10 μl of cell lysate each was transferred into a 96-well microtiter plate. 15 μl of luciferin reagent was added to the sample and the quantification of the luminescence was counted during 10 seconds.
The results were expressed in percentage of Wnt activation. Thus, the maximal luciferase activity obtained with the mixture of Inducer and Reporter Cells corresponded to 100%.

In experiment [2] the test system is human hepatic stellate cells. Put plainly: Cell proliferation assay (cell number/well) of PDGF-BB-stimulated primary human hepatic stellate cells. It counts as cell-based. As for the experimental part:
(§1) Human hepatic stellate cells (HSCs) were isolated from wedge sections of normal human liver unsuitable for transplantation. Liver tissue was digested with collagenase/pronase. HSC were separated from other liver nonparenchymal cells by ultracentrifugation over gradients of Stractan (Cellsep isotonic solution; Larex Inc., St. Paul, Minn.). HSC were cultured on plastic culture dishes in Iscove's modified Dulbecco's medium supplemented with 0.6 U/mL of insulin, 2.0 mmol/L of glutamine, 0.1 mmol/L of nonessential amino acids, 1.0 mmol/L of sodium pyruvate, antibiotic-antimycotic solution (all provided by Gibco Laboratories, Grand Island, N.Y.), and 20% fetal bovine serum (Imperial Laboratories, Andover, UK). All experiments were performed in triplicate and results are expressed as MEAN+SD. Statistical significance was evaluated by Student t test.
(§2) For this group of experiments the stimulus of choice was human recombinant PDGF-BB at the standard dose of 10 ng/ml. Canrenone (10 μM), whose inhibitory effect has been previously shown in the same cell preparations (Caligiuri et al., 2003), was used as a positive control of inhibition.
HSC were plated in 12 well dishes at 30% confluence in Iscove's modified Dulbecco's medium supplemented with 0.6 U/mL insulin, 2.0 mmol/L of glutamine, 0.1 mmol/L nonessential amino acids, 1.0 mmol/L of sodium pyruvate, antibiotic-antimycotic solution (all from Gibco Laboratories, Grand Island, N.Y.), and 20% fetal bovine serum (Imperial Laboratories, Andover, UK). After 24 hours the HSC were incubated with serum-free medium containing PDGF-BB to induce activation at a concentration of 10 ng/ml with or without SARP-1(Fz)delta7-Fc at a concentration of 10, 1 and 0.1 μg/ml. HSC were harvested and cell number/well were determined after 2, 4, and 6 days of culture. At each time point fresh medium and experimental conditions were added at the remaining wells.

Experiment [3] deals with human hepatic stellate cells. In words: Incorporation of 3H-thymidine into DNA of PDGF-BB-stimulated primary human hepatic stellate cells. It counts as cell-based. The settings on record: PDGF-BB 10 ng/ml; 10, 1 and 0.1 μg/ml. On the procedure: as §1, §2
HSC were plated in 24 well plastic dishes and grown to confluence in complete cell culture medium containing 20% of fetal bovine serum (FBS). HSC were then deprived of serum for 48 hours and stimulated with PDGF-BB for additional 24 hours. […]

Experiment [4] deals with B16F1 (mouse melanoma) cell line. Put plainly: MTT cell proliferation assay, B16F1. It is filed as cell-based. On the procedure:
(§3) The cell line B16F1 (mouse melanoma) were cultivated in DMEM+10% serum and seeded at 5000 cells/well in a total volume of 50 μl. The SW480 and SW620 (human colon carcinoma) cell lines were cultivated in L15 medium+10% fetal bovine serum and seeded at 20,000 cells per well in a total volume of 50 μl. SARP-1(Fz)delta7-Fc was added immediately at a concentration of 1, 3 or 6 μM.
(§4) Cell proliferation assay was evaluated by reduction of 3-(4,5-dimethylthiazol-2-yl)-2,5-diphenyltetrazolium bromide (MTT) after 24, 48, 72 and 96 hours of culture. For the test of cell proliferation, 5 μl and 10 μl of MTT solution were added to the cultures of B16F1, SW480 and SW620 cells, respectively. After the incubation period, cells were lysed in 200 μl DMSO, and optic density was determined at 570 and 630 nm. The positive control for inhibition of cell proliferation was DKK1-Fc used at a concentration of 1 μM during the experiment.

Experiment [5] relates to SW480 (human colon carcinoma) cell line. In words: MTT cell proliferation assay, SW480. It is filed as cell-based. The settings on record: 1, 3 or 6 μM; MTT after 24, 48, 72 and 96 hours. As for the experimental part:
as §3, §4

For experiment [6], the system named is SW620 (human colon carcinoma) cell line. In words: MTT cell proliferation assay, SW620. It is filed as cell-based. The settings on record: 1, 3 or 6 μM; MTT after 24, 48, 72 and 96 hours. As for the experimental part:
as §3, §4

The subject of experiment [7] is unilateral ureter ligation-induced renal fibrosis. Put plainly: Unilateral ureter obstruction (UUO) murine model of renal fibrosis. It counts as in vivo, C57BL/6 mice. The note with it: subcutaneous, 1.5 mg/ml, once a day, 21 days of treatment; p<0.05. On the procedure:
The in vivo activity of SARP-1(Fz)[…]-Fc was tested in an experimental model of obstructive nephropathy, which is unilateral ureter ligation-induced renal fibrosis (Vielhauer et al., 2001). Female inbred C57BL/6 mice weighing 20 to 26 g were kept in macrolone type III cages under a 12 h light/dark cycle. Water and standard chow were available ad libitum. Under general ether anesthesia, a low midline abdominal incision was performed and the ligation of the left distal ureter was made with a 2/0 Mersilene suture, resulting in a unilateral ureter obstruction (UUO). Unobstructed contralateral kidneys served as controls. […] The first dose was administered immediately after UUO once a day for 21 days Mice were killed at 7 and 21 days after UUO by cervical dislocation under general anesthesia with inhaled ether. From each mouse cranial kidney halves were used for histological assessment. Ligated and contralateral kidney tissue was fixed for 24 hours at room temperature in 4% neutral buffered formalin and then embedded in paraffin. For quantitative analysis, 4 μm horizontal sections were cut. Every fifth of fifteen subsequent sections, chosen by systematic uniformly random sampling, was used for analysis. […]

Experiment [8] deals with lung fibroblasts of patients with interstitial pulmonary fibrosis (IPF). Put plainly: BrdU incorporation (cell proliferation ELISA) in primary lung fibroblasts from IPF patients. The settings on record: for PDGF-increased BrdU incorporation: PDGF 10 ng/ml. It is filed as cell-based, human. As for the experimental part: To evaluate the effect of SARP-1(Fz)delta7-Fc, lung fibroblasts were obtained from lung explants of patients with interstitial pulmonary fibrosis (IPF) (N=3) and controls (N=3). Fibroblasts were cultured in 96 well cell culture plates in DMEM medium with high glucose (25 mM) and 10% Fetal Clone II (Hyclone) until they reached approximately 50% confluence. Fetal Clone II is an alternative to fetal bovine serum (FBS). Then the cells were cultured for 48 hours with Fetal Clone II at a concentration of 1%. […] Bromodeoxyuridine (5-bromo-2-deoxyuridine, BrdU) was added 24 hours later at a final concentration of 100 μM. After 24 hours of incubation, cells were fixed and lysed. Cell proliferation was evaluated with the cell proliferation ELISA BrdU colorimetric assay (Roche Diagnostics, Meylan, France) ELISA. The experiments were performed in the basal condition (without PDGF) and in the presence of PDGF (10 ng/ml), All experimental conditions were tested in triplicates and the mean value was calculated. For each experimental condition, the incorporation of BrdU was expressed as a percentage of the incorporation observed in the control condition in the same culture.

For the substance “SARP-1(Fz)delta7-Fc: Fusion of mature SARP-1 without Netrin domain, lacking first seven N-terminal amino acids, with human IgG1 Fc region”, the IC50 in experiment [1] (48 hours incubation, 300 to 5 μg/ml, read-out: IC50, reduction of luciferase activity) was 750 nM. Further, the “Emax reached, inhibition of Wnt 1 and Wnt 2 activation” value in experiment [1] (FIG. 3 legend) is recorded as 80%. Further, in experiment [1] (FIG. 3 legend, read-out: EC50, inhibition of Wnt 1 and Wnt 2 activation in a reporter cellular assay), the 50% effective concentration (EC50) was found to be 750 nM. For the same substance, the “maximum inhibition of luciferase activity” value in experiment [1] (at concentration from 150 to 300 μg/ml) amounted to 80%. Also, the “inhibitory effect on PDGF-induced hepatic stellate cells” value was “more prominent” in experiment [2] (10.0 μg/ml after 2, 4 and 6 days of culture); “statistically significant” in experiment [2] (dose of 1 μg/ml after 2 days of culture). The “PDGF-induced cell growth of hepatic stellate cells” value in experiment [2] (10.0 μg/ml for 2, 4 or 6, PDGF-BB 10 ng/ml) was “significantly decreased”. Further, in experiment [3], the “PDGF-induced DNA synthesis in primary human hepatic stellate cells cultures” value is “reduced significantly”. In addition, in experiment [4] (6 μM), the “level of inhibition of B16F1 proliferation compared with positive control DKK1-Fc (1 μM)” value is “comparable to the one obtained by using the positive control”. Also, the “inhibition of proliferation of B16F1 melanoma cell line” value in experiment [4] (1 to 6 μM, MTT after 24, 48, 72 and 96 hours) was “significant inhibition; also recorded: inhibited cell proliferation”. Besides, in experiment [5], the “inhibition of cell proliferation of SW480” value was “able to inhibit the cell proliferation; also recorded: inhibited cell proliferation”. The “inhibition of cell proliferation of SW620” value in experiment [6] is on record as “able to inhibit the cell proliferation; also recorded: inhibited cell proliferation”. Besides, the “alfa smooth muscle actin (α-SMA) accumulation, myofibroblast marker, histological analysis” value in experiment [7] is listed as “reduction; also recorded: decreased”. In addition, the “renal fibrosis by morphometric analysis of the changes in the tubular interstitium” value in experiment [7] is reported as “reduction of renal fibrosis”. Besides, the “PDGF-increased BrdU incorporation” value was “no effect” in experiment [8] (1 μg/ml), “no effect” in experiment [8] (10 μg/ml), “profoundly inhibited” in experiment [8] (100 μg/ml) and “reduced BrdU incorporation” in experiment [8] (concentration not given). In addition, the “BrdU incorporation, basal condition” value in experiment [8] (without PDGF, in b213 at the highest dose tested) is listed as “reduced BrdU incorporation”.
